Molecules are shown by their SMILES.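 Briefly, cells in 96-well plates were exposed to five compound concentrations for 48 h, and endpoints were estimated by linear interpolation. GI50 = concentration required for 50% inhibition of growth.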 Activity calls are given as the source filed them. Cut-off read from the data, not from the text of the source: active = GI50 up to about 1.1 µM and inactive = higher.

Some test systems named below: SK-MEL-28; HCT-15; SNB-75; M14; NCI-H226; KM12; ACHN; K562; SK-MEL-5; IGROV-1; SF-539; UACC-257; SW-620; SK-OV-3; RXF 393; HOP-92; HL-60; SK-MEL-2.
What all share (assay): NCI tumour cell line growth inhibition, 48 h

Take `CCCCCCCCCCC(=O)CC(=O)c1c(O)cccc1O`: the GI50 was 53.7 µM (inactive) in the assay on SK-MEL-28; 47.4 µM in the assay with HCT-15; 40.3 µM (inactive) in the assay with SNB-75; 40.2 µM (inactive) in the assay with M14; 17.9 µM (inactive) in the assay on NCI-H226; 33 µM (inactive) in the assay with KM12. The GI50 in the assay on ACHN was 30 µM (inactive); in the assay on K562, 24.9 µM (inactive); in the assay with SK-MEL-5, 28.4 µM (inactive); in the assay on IGROV-1 it was 46.8 µM (inactive); in the assay with SF-539, 36.4 µM (inactive); in the assay with UACC-257, 31.2 µM (inactive). For the same molecule, the GI50 is 34.2 µM (inactive) in the assay on SW-620; 38.1 µM (inactive) in the assay with SK-OV-3; 26.3 µM (inactive) in the assay on RXF 393; 27.1 µM (inactive) with HOP-92; 16.3 µM (inactive) in the assay with HL-60.

For `O=C1c2ccccc2C(=O)N1/N=C\c1ccc(Br)cc1`, the GI50 with SK-MEL-28 is > 10 µM (inactive); with HCT-15, greater than 10 µM; in the assay with SNB-75 it was > 10 µM (inactive); with M14, > 10 µM (inactive); with NCI-H226, > 10 µM (inactive); with KM12, > 10 µM (inactive). For the same molecule, the GI50 in the assay with ACHN, with K562, in the assay on SK-MEL-5, in the assay on IGROV-1, in the assay on SF-539 and in the assay with UACC-257 was > 10 µM (inactive) throughout. Besides, the GI50 is > 10 µM (inactive) with SW-620; > 100 µM (inactive) with SK-OV-3; > 10 µM (inactive) in the assay with RXF 393; > 10 µM (inactive) in the assay with HOP-92; > 10 µM (inactive) in the assay on HL-60; > 10 µM (inactive) with SK-MEL-2.

Consider `O=C(CCN1CCCC1)CC(c1ccccc1)c1c(O)c2ccccc2oc1=O` (stereo not given), for which the GI50 in the assay with SK-MEL-28 was > 100 µM (inactive); with HCT-15, greater than 100 µM; in the assay on SNB-75, > 100 µM (inactive); in the assay on M14, > 100 µM (inactive); in the assay with NCI-H226 it was > 100 µM (inactive); with KM12 it was > 100 µM (inactive). The GI50 in the assay on ACHN, with K562, in the assay on SK-MEL-5, in the assay with IGROV-1, with UACC-257 and in the assay on SW-620 was > 100 µM (inactive) each time. For the same molecule, the GI50 was > 100 µM (inactive) in the assay on SK-OV-3; > 100 µM (inactive) in the assay on RXF 393; 20.1 µM (inactive) in the assay on HOP-92; > 100 µM (inactive) in the assay on HL-60; > 100 µM (inactive) in the assay on SK-MEL-2.

As for `NC(=O)NC12CC3CC(CC(F)(C3)C1)C2`, the GI50 in the assay on SK-MEL-28 was > 100 µM (inactive); in the assay with SNB-75 it was 87.9 µM (inactive); in the assay with M14 it was > 100 µM (inactive); in the assay on KM12, > 100 µM (inactive); in the assay with ACHN, > 100 µM (inactive); in the assay on K562 it was > 100 µM (inactive). The GI50 in the assay with IGROV-1, in the assay on SF-539, in the assay on UACC-257, in the assay on SW-620, in the assay with SK-OV-3 and in the assay on RXF 393 was > 100 µM (inactive) in each case. For the same molecule, the GI50 in the assay on HOP-92, in the assay with HL-60 and with SK-MEL-2 was > 100 µM (inactive) each time.

On to `O=C(O)CCC(N/C=C1/N=C(c2ccccc2)OC1=O)C(=O)O` (stereo not given), for which the GI50 was > 100 µM (inactive) in the assay with SK-MEL-28; greater than 100 µM in the assay on HCT-15; > 100 µM (inactive) in the assay on SNB-75; > 100 µM (inactive) with M14; > 100 µM (inactive) in the assay with NCI-H226; > 100 µM (inactive) in the assay on KM12. Moreover, the GI50 in the assay on ACHN, with K562, in the assay with SK-MEL-5, in the assay on IGROV-1, in the assay with SF-539 and in the assay with UACC-257 was > 100 µM (inactive) in each case. For the same molecule, the GI50 in the assay on SW-620 was > 100 µM (inactive); in the assay with SK-OV-3 it was > 100 µM (inactive); with RXF 393, > 100 µM (inactive); with HL-60, 10 µM (inactive); in the assay on SK-MEL-2, > 100 µM (inactive).

As to `CSC(=S)c1ccc(C(=S)SC)cc1`, the GI50 in the assay on HCT-15 is greater than 100 µM; with SNB-75 it was > 100 µM (inactive); in the assay on M14, > 100 µM (inactive); in the assay with NCI-H226 it was > 100 µM (inactive); with KM12 it was > 100 µM (inactive); with K562, > 100 µM (inactive). For the same molecule, the GI50 in the assay with SK-MEL-5, with IGROV-1, in the assay on SF-539, in the assay on UACC-257, in the assay on SW-620 and in the assay on SK-OV-3 was > 100 µM (inactive) throughout. Also, the GI50 in the assay with RXF 393, in the assay with HOP-92 and in the assay with HL-60 was > 100 µM (inactive) in each case.

Regarding `Cn1c(N)nc(=O)c2c1N(C1OC(CO)C(O)C1O)CN2Cc1ccccc1` (stereo not given), the GI50 in the assay on HCT-15 was greater than 100 µM; with SNB-75, > 100 µM (inactive); in the assay with M14 it was > 100 µM (inactive); in the assay on NCI-H226 it was > 100 µM (inactive); in the assay on KM12 it was > 100 µM (inactive); in the assay on ACHN it was > 100 µM (inactive). The GI50 in the assay on K562, in the assay with SK-MEL-5, with IGROV-1, in the assay on SF-539, with UACC-257 and in the assay with SW-620 was > 100 µM (inactive) in each case. Besides, the GI50 in the assay on SK-OV-3, with RXF 393, with HOP-92, with HL-60 and in the assay with SK-MEL-2 was > 100 µM (inactive) in each case.

As for `COC(=O)C(C(=O)C(=O)Nc1ccc([N+](=O)[O-])cc1[N+](=O)[O-])c1nc2ccc(Cl)cc2nc1O` (stereo not given), the GI50 in the assay with SK-MEL-28 was > 100 µM (inactive); with HCT-15, greater than 100 µM; in the assay on SNB-75, 68.2 µM (inactive); in the assay with M14 it was > 100 µM (inactive); with NCI-H226, 79.1 µM (inactive); in the assay on KM12, > 100 µM (inactive). The GI50 in the assay on ACHN was 65 µM (inactive); with K562 it was > 100 µM (inactive); in the assay on SK-MEL-5, 99.8 µM (inactive); with IGROV-1, > 100 µM (inactive); in the assay on SF-539, > 100 µM (inactive); in the assay on UACC-257, > 100 µM (inactive). For the same molecule, the GI50 is > 100 µM (inactive) with SW-620; > 100 µM (inactive) with SK-OV-3; 30.5 µM (inactive) with RXF 393; > 100 µM (inactive) in the assay with HOP-92; > 100 µM (inactive) in the assay with HL-60; > 100 µM (inactive) in the assay with SK-MEL-2.

As for `Cc1ccccc1SC(/C=C/NNC1=NN=C(c2ccccc2)C(c2ccccc2)N1)c1ccccc1` (stereo not given), the GI50 in the assay with SK-MEL-28 was 15.7 µM (inactive); in the assay on HCT-15, 34 µM; in the assay with SNB-75 it was 5.68 µM (inactive); with M14, 19.1 µM (inactive); with NCI-H226, 18.3 µM (inactive); in the assay with KM12 it was 28.4 µM (inactive). Moreover, the GI50 with ACHN is 15.4 µM (inactive); in the assay with K562, 30.2 µM (inactive); in the assay with SK-MEL-5, 26.1 µM (inactive); in the assay on IGROV-1, 27.4 µM (inactive); with SF-539, 13.4 µM (inactive); with UACC-257, 18.6 µM (inactive). Besides, the GI50 in the assay on SW-620 was 27.7 µM (inactive); with SK-OV-3 it was 22.4 µM (inactive); with RXF 393, 11.1 µM (inactive); in the assay on HOP-92, 9.57 µM (inactive); in the assay on HL-60, > 10 µM (inactive); in the assay with SK-MEL-2, 16.3 µM (inactive).

Take `O=C(NCC(O)CNC(=O)C(F)(F)F)C(F)(F)F`: the GI50 in the assay with HCT-15 was greater than 100 µM; with SNB-75, > 100 µM (inactive); with M14, > 100 µM (inactive); in the assay with NCI-H226 it was > 100 µM (inactive); in the assay on KM12 it was > 100 µM (inactive); in the assay on K562, > 100 µM (inactive). The GI50 in the assay with SK-MEL-5, in the assay on IGROV-1, in the assay with SF-539, in the assay on UACC-257, in the assay with SW-620 and with SK-OV-3 was > 100 µM (inactive) in each case. Also, the GI50 in the assay on RXF 393, in the assay with HOP-92 and with HL-60 was > 100 µM (inactive) in each case.

Turning to `[O-][S+]1c2ccccc2N=C(c2cccs2)CC1c1ccccc1O` (stereo not given), the GI50 in the assay on SK-MEL-28 is > 100 µM (inactive); with HCT-15, greater than 100 µM; in the assay with SNB-75, 32.4 µM (inactive); in the assay on M14, > 100 µM (inactive); with NCI-H226 it was > 100 µM (inactive); in the assay with KM12, 93.5 µM (inactive). In addition, the GI50 is > 100 µM (inactive) in the assay on ACHN; > 100 µM (inactive) in the assay with K562; > 100 µM (inactive) with SK-MEL-5; 16.5 µM (inactive) in the assay on IGROV-1; > 100 µM (inactive) in the assay on SF-539; > 100 µM (inactive) in the assay with UACC-257. Besides, the GI50 in the assay with SW-620 was > 100 µM (inactive); in the assay with SK-OV-3 it was > 100 µM (inactive); in the assay on RXF 393, 63.1 µM (inactive); with HL-60, > 100 µM (inactive); in the assay on SK-MEL-2, > 100 µM (inactive).

`CC(=O)OCC1(C)C(OC(C)=O)CCC2(C)C(CC(OC(C)=O)C3=CCOC3=O)C(O)(CO)CCC12` (stereo not given): the GI50 in the assay on SK-MEL-28, with SNB-75, in the assay on M14, in the assay on NCI-H226, in the assay on KM12 and in the assay on ACHN was > 100 µM (inactive) in each case. The GI50 with K562, with SK-MEL-5, in the assay with IGROV-1, in the assay on SF-539, with UACC-257 and in the assay with SW-620 was > 100 µM (inactive) each time. Further, the GI50 in the assay with SK-OV-3 is > 100 µM (inactive); with RXF 393 it was > 100 µM (inactive); in the assay with HOP-92, > 100 µM (inactive); in the assay on HL-60, 61.5 µM (inactive).

The values above are taken from ChEMBL document CHEMBL1201862, “PubChem BioAssay data set” (2004).
